Reference: US20210116454A1, “METHODS FOR TREATING A HEMATOLOGICAL CANCER AND THE USE OF COMPANION BIOMARKERS FOR 2-(2,6-DIOXOPIPERIDIN-3-YL)-4-((2-FLUORO-4-((3-MORPHOLINOAZETIDIN-1-YL)METHYL)BENZYL)AMINO)ISOINDOLINE-1,3-DIONE” (CELGENE CORPORATION, priority 2019, published 2021)
Read-outs that look alike come from different tables or passages of the source.

Assays:
SU-DHL-6 = test: 5-day viable cell number and apoptosis (7-AAD exclusion/Annexin V flow cytometry); type: cell-based; conditions: SU-DHL-6 cells, 5 days
Summary of the method: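 5 d tx, escalating doses, DLBCL lines; viable cells counted; apoptosis via 7-AAD exclusion/Annexin V by flow.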

Farage CRBN^WT cells = test: Cell proliferation in CRBN^WT (CAS9 control) cells, 5 days; type: cell-based; conditions: 120 h
Text: The activated B-cell (ABC) and MYC/BCL2 double expressor cell lines SU-DHL-2 and RIVA, the germinal center B-cell (GCB) and MYC/BCL2 double hit cell lines (and expressing BCL6) Karpas-422, SU-DHL-10, WSU-DLCL2, and the primary mediastinal B-cell lymphoma (PMBL) cell line Farage were infected with a CAS9 expressing lentivirus construct to generate the control CAS9 expressing cells. The Cas9 cells had wild type cereblon expression (CRBN^WT).
To generate the cereblon knock out cells (CRBN^−/−), the individual control CAS9 cells were infected with a construct expressing a subgenomic single guide RNA (sgRNA). Western blot analysis confirmed the absence of cereblon protein in the CRBN^−/− cells, relative to the levels of the housekeeping protein β-tubulin. The CRBN^WT and CRBN^−/− cells were treated with increasing concentrations of Compound 1 for five days.

Aiolos = target: T1, Aiolos (Homo sapiens, UniProt Q96SW2+Q9UKT9); test: ePL-tagged substrate degradation kinetics in DF15 cells (enantiomer comparison); type: cell-based; design: Aiolos Y-constant: scale not given here; conditions: for DC50: read-out: Aiolos EC50
T1 construct: expressed in transfected cells; host or cells: DF15 cells
T1 sequence (Q9UKT9 whole entry): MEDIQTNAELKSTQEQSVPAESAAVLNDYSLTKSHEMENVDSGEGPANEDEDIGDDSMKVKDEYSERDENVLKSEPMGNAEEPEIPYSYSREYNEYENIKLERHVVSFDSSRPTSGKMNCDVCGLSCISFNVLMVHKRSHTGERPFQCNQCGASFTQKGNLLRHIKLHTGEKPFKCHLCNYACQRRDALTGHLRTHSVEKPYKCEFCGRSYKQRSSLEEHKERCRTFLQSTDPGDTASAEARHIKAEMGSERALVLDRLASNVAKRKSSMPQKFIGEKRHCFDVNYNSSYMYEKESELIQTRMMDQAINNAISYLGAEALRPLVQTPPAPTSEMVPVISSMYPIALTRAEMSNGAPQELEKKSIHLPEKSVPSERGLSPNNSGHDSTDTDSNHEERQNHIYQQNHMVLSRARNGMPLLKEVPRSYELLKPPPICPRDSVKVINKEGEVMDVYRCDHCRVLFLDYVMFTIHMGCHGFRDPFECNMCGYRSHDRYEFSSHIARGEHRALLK
T1 sequence (Q96SW2 whole entry): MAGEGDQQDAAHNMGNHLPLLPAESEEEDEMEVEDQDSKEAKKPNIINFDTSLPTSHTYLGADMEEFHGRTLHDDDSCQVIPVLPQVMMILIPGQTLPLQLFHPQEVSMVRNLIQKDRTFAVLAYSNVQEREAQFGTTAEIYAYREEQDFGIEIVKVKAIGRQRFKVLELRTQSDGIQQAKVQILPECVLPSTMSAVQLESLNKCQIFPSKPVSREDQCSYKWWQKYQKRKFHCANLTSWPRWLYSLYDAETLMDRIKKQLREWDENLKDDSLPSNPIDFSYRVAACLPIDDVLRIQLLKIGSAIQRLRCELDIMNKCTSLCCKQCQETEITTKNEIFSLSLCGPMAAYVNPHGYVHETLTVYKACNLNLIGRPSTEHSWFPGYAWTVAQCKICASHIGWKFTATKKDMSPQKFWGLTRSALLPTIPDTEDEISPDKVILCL
T1 sequence (Q16531 whole entry partner): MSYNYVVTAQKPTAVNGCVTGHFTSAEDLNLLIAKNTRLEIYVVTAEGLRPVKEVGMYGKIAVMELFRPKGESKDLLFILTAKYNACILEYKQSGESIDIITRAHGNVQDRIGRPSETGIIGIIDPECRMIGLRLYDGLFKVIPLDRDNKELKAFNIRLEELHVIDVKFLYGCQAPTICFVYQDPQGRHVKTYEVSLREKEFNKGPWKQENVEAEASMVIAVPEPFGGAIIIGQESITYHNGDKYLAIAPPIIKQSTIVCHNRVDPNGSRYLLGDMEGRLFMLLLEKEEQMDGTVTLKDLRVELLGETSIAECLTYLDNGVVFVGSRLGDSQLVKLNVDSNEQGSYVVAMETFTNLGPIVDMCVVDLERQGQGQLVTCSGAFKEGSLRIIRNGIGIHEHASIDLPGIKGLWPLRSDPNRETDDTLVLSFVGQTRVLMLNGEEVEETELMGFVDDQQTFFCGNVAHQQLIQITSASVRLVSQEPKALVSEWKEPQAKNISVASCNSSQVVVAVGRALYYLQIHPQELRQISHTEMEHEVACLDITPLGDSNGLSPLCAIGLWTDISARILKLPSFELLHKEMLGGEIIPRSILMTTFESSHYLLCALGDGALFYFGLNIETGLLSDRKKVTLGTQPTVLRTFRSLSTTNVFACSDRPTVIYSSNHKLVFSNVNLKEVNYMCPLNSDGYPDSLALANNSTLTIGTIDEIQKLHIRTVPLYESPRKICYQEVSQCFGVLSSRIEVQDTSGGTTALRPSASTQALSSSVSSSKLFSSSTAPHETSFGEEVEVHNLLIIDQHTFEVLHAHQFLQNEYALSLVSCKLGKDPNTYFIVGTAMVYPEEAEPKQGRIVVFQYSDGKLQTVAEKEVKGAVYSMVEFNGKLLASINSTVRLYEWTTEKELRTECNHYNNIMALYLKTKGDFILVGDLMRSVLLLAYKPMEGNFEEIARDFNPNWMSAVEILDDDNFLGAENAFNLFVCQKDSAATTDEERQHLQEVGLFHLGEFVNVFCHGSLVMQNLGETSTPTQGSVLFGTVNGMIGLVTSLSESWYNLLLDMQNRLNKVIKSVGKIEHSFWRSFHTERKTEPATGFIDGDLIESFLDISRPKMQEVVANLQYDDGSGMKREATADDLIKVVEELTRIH
Protocol: (§1) In a second assay, DF15 cell lines expressing ePL-tagged target protein substrates were used as a model system to monitor protein degradation at 0.75, 1, 1.5, 3, 4, and 24 hours over a concentration range from 1 pM to 10 μM. The proteins evaluated were Ikaros (FIG. 17), Aiolos, and ZFP91. Compound 1 and Compound 2 were both able to degrade the substrate proteins at all time points (Table 9). In a further assay, additional time points were included to monitor the effect of treatment with Compound 1 and Compound 2.
(§2) The depth of substrate protein degradation described by the Y-constant was also measured in this assay against a negative control luciferase inhibitor (CC1071297, Y-constant=0).

LPS system = test: BioMAP LPS system (PBMCs and endothelial cells); type: cell-based, human; conditions: 0.01, 0.1, 1, and 10 μM
Protocol: The activity of Compound 1 was profiled in a panel of human primary cell-based assays, modeling complex tissue and disease biology of organs (vasculature, immune system, skin, lung) and general tissue biology using the BioMAP System (DiscoveRx, Fremont, Calif.).
The BioMAP System consists of twelve primary human monoculture or co-culture systems in stimulated and non-stimulated control conditions (FIG. 4, panel A). When tested at 0.01, 0.1, 1, and 10 μM, Compound 1 mediated changes in key biomarker activities. Specifically, the profiles for Compound 1 reflected selective anti-inflammatory and immunomodulatory impact on monocyte (LPS) and T cell dependent B cell activation responses (BT). Treatment with Compound 1 led to a decrease in interleukin 8 (IL-8), interleukin 1a (IL-1a), secreted prostaglandin E2 (sPGE2), and secreted tumor necrosis factor alpha (sTNFα) in the LPS system, which consisted of peripheral blood mononuclear cells (PBMCs) and endothelial cells. Furthermore, secreted IgG (sIgG), secreted interleukin 17A (sIL-17A), secreted interleukin 17F (sIL-17F), and sTNFα decreased, whereas secreted interleukin 2 (sIL-2) and secreted interleukin 6 (sIL-6) increased, in the BT system, which was comprised of B cells and PBMCs.

Ikaros [1] = target: T2, Ikaros (Homo sapiens, UniProt Q13422+Q96SW2); test: Ikaros protein level by flow cytometry during ex vivo myeloid differentiation; type: cell-based
T2 sequence (Q13422 whole entry): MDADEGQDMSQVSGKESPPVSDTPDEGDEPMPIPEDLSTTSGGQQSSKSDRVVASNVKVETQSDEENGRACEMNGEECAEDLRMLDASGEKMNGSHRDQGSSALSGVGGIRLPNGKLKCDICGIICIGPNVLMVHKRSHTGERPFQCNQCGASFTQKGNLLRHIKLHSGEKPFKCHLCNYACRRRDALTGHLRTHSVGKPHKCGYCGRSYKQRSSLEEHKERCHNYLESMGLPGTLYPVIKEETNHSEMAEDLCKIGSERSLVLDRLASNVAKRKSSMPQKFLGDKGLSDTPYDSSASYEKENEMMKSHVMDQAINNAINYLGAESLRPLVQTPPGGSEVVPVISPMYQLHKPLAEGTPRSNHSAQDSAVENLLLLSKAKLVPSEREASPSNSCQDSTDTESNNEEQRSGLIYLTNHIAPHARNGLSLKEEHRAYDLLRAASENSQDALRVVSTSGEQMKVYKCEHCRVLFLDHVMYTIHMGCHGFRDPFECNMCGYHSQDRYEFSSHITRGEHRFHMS
T2 sequence (Q96SW2 whole entry): as the sequence (Q96SW2 whole entry) above
T2 sequence (Q16531 whole entry partner): as the sequence (Q16531 whole entry partner) above
Text: Ikaros protein levels were monitored during periods of Compound 1 exposure and recovery. Ikaros levels were reduced during Compound 1 exposure and recovered following drug withdrawal in a concentration-dependent manner with no significant differences noted in association with different exposure schedules (FIG. 21; FIG. 22). Ikaros levels began returning to normal after at least 3 days following washout, predating full recovery of maturation of late-stage neutrophil precursors (FIG. 23). […] Accordingly, Ikaros levels in neutrophils can serve as a marker for response to Compound 1.
Ikaros protein level was analyzed by flow cytometry every two or three days. As shown in FIG. 21 and FIG. 22, Ikaros protein was degraded under both Compound 1 treatment schedules (14 days and 5 days) and its expression was restored after drug washout in a concentration dependent manner.

Ikaros [2] = target: T2, Ikaros; test: Enzyme fragment complementation (EFC) degradation assay, DF15 cells expressing ePL-tagged substrate; type: cell-based; design: expressed in transfected cells; host or cells: DF15 cells; conditions: for Emax: DF15, DF15 ePL-Ikaros, remaining substrate; for DC50: DF15 ePL-Ikaros, read-out: Ikaros degradation EC50
Ikaros [3] = target: T2, Ikaros; test: ePL-tagged substrate degradation kinetics in DF15 cells (enantiomer comparison); type: cell-based; design: expressed in transfected cells; host or cells: DF15 cells; Ikaros Y-constant: scale not given here; conditions: for DC50: read-out: Ikaros EC50
Protocol: as §1, §2

With `O=C1CC[C@H](N2C(=O)c3cccc(NCc4ccc(CN5CC(N6CCOCC6)C5)cc4F)c3C2=O)C(=O)N1` [Compound 1, (S)-2-(2,6-dioxopiperidin-3-yl)-4-((2-fluoro-4-((3-morpholinoazetidin-1-yl)methyl)benzyl)amino)isoindoline-1,3-dione] the EC50 (SU-DHL-6; Homo sapiens, 120 h) was 452 nM, the Emax (SU-DHL-6; Homo sapiens, 120 h) was 46.3% and the IC50 (SU-DHL-6; Homo sapiens, 120 h) was 260 nM. For the same compound, the “% Viable Cells AUC” value (SU-DHL-6) was 88.38, the “% Viable Cells Emax” value (SU-DHL-6) was 5.843% and the “% Viable Cells Sensitivity” value (SU-DHL-6) was “High (highly sensitive to Compound 1 with less than 6% viable cells remaining (Emax) after treatment)”. For the same compound, the “Apoptosis AUC” value (SU-DHL-6) was 421.1, the “Apoptosis Sensitivity” value (SU-DHL-6) was “High” and the Emax (Farage CRBN^WT cells) was 0.5%. For the same compound, the IC50 (Farage CRBN^WT cells) was 8 nM, the “Aiolos Y-constant” value (Aiolos; 0.75 hours) was 46 and the DC50 (Aiolos; 0.75 hours) was 0.73 nM. The “Aiolos Y-constant” value (Aiolos; 1 hour) was 29, the DC50 (Aiolos; 1 hour) was 0.94 nM and the “Aiolos Y-constant” value (Aiolos; 1.5 hours) was 11. The DC50 (Aiolos; 1.5 hours) was 0.72 nM, the “Aiolos Y-constant” value (Aiolos; 3 hours) was 4.8 and the DC50 (Aiolos; 3 hours) was 0.6 nM. For the same compound, the “Aiolos Y-constant” value (Aiolos; 4 hours) was 3.9, the DC50 (Aiolos; 4 hours) was 0.56 nM and the “Aiolos Y-constant” value (Aiolos; 24 hours) was 4.0. The DC50 (Aiolos; 24 hours) was 0.52 nM, the “IL-8, IL-1a, sPGE2, and sTNFα” value (LPS system) was “decrease” and the “recovery of Ikaros protein” value (Ikaros [1]; Day 19, all concentrations, after 14 days of treatment) was “complete recovery”. For the same compound, the “time after washout at which Ikaros levels began returning to normal” value (Ikaros [1]; neutrophil precursors, following washout) was “at least 3 days”, the Emax (Ikaros [2]; 1 hour) was 75.5% and the Emax (Ikaros [2]; 2 hours) was 33%. For the same compound, the Emax (Ikaros [2]; 6 hours) was 1.5%, the Emax (Ikaros [2]; 24 hours) was 0.03% and the DC50 (Ikaros [2]; 1 hour) was 0.6 nM. It also gave a DC50 (Ikaros [2]; 2 hours) of 0.8 nM, a DC50 (Ikaros [2]; 6 hours) of 0.5 nM and a DC50 (Ikaros [2]; 24 hours) of 0.4 nM. The “Ikaros Y-constant” value (Ikaros [3]; 0.75 hours) was 39.3, the DC50 (Ikaros [3]; 0.75 hours) was 1.25 nM and the “Ikaros Y-constant” value (Ikaros [3]; 1 hour) was 27.5. For the same compound, the DC50 (Ikaros [3]; 1 hour) was 1.01 nM, the “Ikaros Y-constant” value (Ikaros [3]; 1.5 hours) was 12.5 and the DC50 (Ikaros [3]; 1.5 hours) was 0.96 nM. For the same compound, the “Ikaros Y-constant” value (Ikaros [3]; 3 hours) was 8.6, the DC50 (Ikaros [3]; 3 hours) was 0.81 nM and the “Ikaros Y-constant” value (Ikaros [3]; 4 hours) was 6.8. The DC50 (Ikaros [3]; 4 hours) was 0.99 nM, the “Ikaros Y-constant” value (Ikaros [3]; 24 hours) was 2.6 and the DC50 (Ikaros [3]; 24 hours) was 0.35 nM.
